Converted amounts (≈) assume the structure as drawn.
What was measured:
[1] = Physical stability on storage (microscope / polarized microscope); type: physicochemical; settings: 25° C./60% RH and 5° C.
Experimental: Certain combinations of Gelucire 44/14 with Solutol HS15, TPGS and Tween 80 were screened as shown in Table 2 at 200 mg/g concentration of Compound 1. Physical stability was observed microscopically at week one at 25° C./60% RH and at 5° C. Bioperformance was assessed visual observation after 10× dilution in FaSSIF. Based on the crash resistance test performed with ten times dilution with FaSSIF, the most promising formulation combination for Gelucire 44/14 appeared to be 80% w/w Gelucire 44/14, 10% w/w TPGS and 10% w/w Tween 80.
In the above table and in this paragraph, the % w/w are based on the total weight of the vehicle without compound. The 80% w/w Gelucire 44/14, 10% w/w TPGS and 10% w/w Tween 80 formulation vehicles were further tested at lower Compound 1 concentrations of 150 mg/g (i.e. 150 mg of Compound 1 in 1 g of Compound 1+vehicle) and 100 mg/g (i.e. 100 mg of Compound 1 in 1 g of Compound 1+vehicle) to minimize the crystallization risk upon storage. Physical stability was observed microscopically at week one at 25° C./60% RH and at 5° C. Bioperformance was assessed visual observation after 10× dilution in FaSSIF.
Physical stability evaluation of both Gelucire 44/14-based and Labrafac-WL-1349-based formulation vehicles was done under polarized microscope. […] Therefore, Labrafac-WL-1349-based formulation was physically stable upon storage.

[2] = Solubility of Compound 1 in oils, surfactants and co-surfactants; type: physicochemical
Experimental: Based on the initial screening as shown in Table 1 and based on limits of excipients allowed by FDA, the solubility of Compound 1 in the oils in Table 1A were measured. Based on the solubility data, Labrafac WL 1349 was further pursued.
A total of 36 different excipients including pharmaceutically acceptable oils, surfactants and co-surfactants were evaluated for Compound 1. Higher solubility of Compound 1 in oils is desirable to increase drug loading.

With CCCCCCCCCC1=C(C)C(=O)C(C)=C(C)C1=O [Compound 1, 2,3,5-trimethyl-6-nonylcyclohexa-2,5-diene-1,4-dione] the Physical stability ([1]; 150 mg/g in vehicle 80% Gelucire 44/14, 10% TPGS, 10% Tween 80, week one) was “Crystallization observed”, the Physical stability ([1]; 200 mg/g in vehicle 70% Gelucire 44/14, 10% TPGS, 20% Tween 80, week one) was “Crystallization” and the Physical stability ([1]; 200 mg/g in vehicle 80% Gelucire 44/14, 10% TPGS, 10% Tween 80, week one) was “Crystallization”. The Physical stability ([1]; 200 mg/g in vehicle 80% Gelucire 44/14, 20% Tween 80, week one) was “Crystallization”, the Physical stability ([1]; 200 mg/g in vehicle 85% Gelucire 44/14, 5% Solutol HS15, 5% TPGS, 5% Tween 80, week one) was “Crystallization” and the Physical stability ([1]; 200 mg/g in vehicle 90% Gelucire 44/14, 10% TPGS, week one) was “Crystallization”. For the same molecule, the Physical stability ([1]; 200 mg/g in vehicle 90% Gelucire 44/14, 10% Tween 80, week one) was “Crystallization”, the “Solubility of Compound 1” value ([2]; in Soybean oil, RT) was less than 150 mg/g and the solubility ([2]; oil or lipid, in Capryol 90, RT) was 125 mg/mL (≈ 451 mM). For the same molecule, the solubility ([2]; oil or lipid, in Capryol PGMC, RT) was 184 mg/mL (≈ 665 mM), the solubility ([2]; oil or lipid, in Corn Oil, RT) was 115 mg/mL (≈ 417 mM) and the solubility ([2]; oil or lipid, in Cottonseed Oil, RT) was 112 mg/mL (≈ 404 mM). It also gave a solubility ([2]; oil or lipid, in Labrafac Lipo WL1349, RT) of 141 mg/mL (≈ 510 mM), a solubility ([2]; oil or lipid, in Labrafac PG, RT) of 222 mg/mL (≈ 803 mM) and a solubility ([2]; oil or lipid, in Labrafil M1944CS, RT) of 101 mg/mL (≈ 364 mM). For the same molecule, the solubility ([2]; oil or lipid, in Labrafil M2125CS, RT) was 119 mg/mL (≈ 429 mM), the solubility ([2]; oil or lipid, in Lauroglycol 90, RT) was 133 mg/mL (≈ 483 mM) and the solubility ([2]; oil or lipid, in Lauroglycol FCC, RT) was 160 mg/mL (≈ 578 mM). It also gave a solubility ([2]; oil or lipid, in Maisine CC, RT) of 90.3 mg/mL (≈ 327 mM), a solubility ([2]; oil or lipid, in Olive oil, RT) of 135 mg/mL (≈ 488 mM) and a solubility ([2]; oil or lipid, in Plurol oleique CC 497) of 50 to 100 mg/mL (≈ 181 to 362 mM). The solubility ([2]; oil or lipid, in Sesame oil, RT) was 139 mg/mL (≈ 503 mM), the solubility ([2]; oil or lipid, in Soybean Oil, RT) was 111 mg/mL (≈ 400 mM) and the solubility ([2]; organic solvent or mixture, in Gelucire 44/14, 45° C.) was 269 mg/mL (≈ 973 mM). It also gave a solubility ([2]; organic solvent or mixture, in Labrasol, RT) of 35.7 mg/mL (≈ 129 mM), a solubility ([2]; organic solvent or mixture, in PEG400, 37° C.) of 11 mg/mL (≈ 39.8 mM) and a solubility ([2]; organic solvent or mixture, in Solutol HS15, 37° C.) of 94 mg/mL (≈ 340 mM). It also gave a solubility ([2]; organic solvent or mixture, in TPGS, 45° C.) of 195 mg/mL (≈ 705 mM), a solubility ([2]; organic solvent or mixture, in Triethyl citrate, RT) of 30.1 mg/mL (≈ 109 mM) and a solubility ([2]; organic solvent or mixture, in Tween 60) of 50 to 100 mg/mL (≈ 181 to 362 mM). The solubility ([2]; organic solvent or mixture, in Tween 80) was 25 to 50 mg/mL (≈ 90.4 to 181 mM).
